Changes are numbered by the printed parent chain. Names and notes keep the numbering of the source.
B1: D274N: D274N AurA, an inactive mutant (protein, UniProt O14965 1-403, looked up, variant D274N)
Aurora kinase A: MDRSKENCISGPVKATAPVGGPKRVLVTQQFPCQNPLPVNSGQAQRVLCPSNSSQRIPLQAQKLVSSHKPVQNQKQKQLQATSVPHPVSRPLNNTQKSKQPLPSAPENNPEEELASKQKNEESKKRQWALEDFEIGRPLGKGKFGNVYLAREKQSKFILALKVLFKAQLEKAGVEHQLRREVEIQSHLRHPNILRLYGYFHDATRVYLILEYAPLGTVYRELQKLSKFDEQRTATYITELANALSYCHSKRVIHRDIKPENLLLGSAGELKIANFGWSVHAPSSRRTTLCGTLDYLPPEMIEGRMHDEKVDLWSLGVLCYEFLVGKPPFEANTYQETYKRISRVEFTFPDFVTEGARDLISRLLKHNPSQRPMLREVLEHPWITANSSKPSNCQNKESASKQS
B2: T288A: T288A AurA, a hypomorphic mutant (protein, UniProt O14965 1-403, looked up, variant T288A)
Aurora kinase A: B1 Aurora kinase A with N274D, T288A

Tests used:
Type in all cases: cell-based
[1] = system: hTERT-RPE1 cells; test: serum-induced ciliary disassembly in ciliated hTERT-RPE1 cells; conditions: compounds added 2 hours prior to induction; tubacin and niltubacin 2 μM, GSK3 inhibitor 2 μM, FTI-277 50 nM
Description: hTERT-RPE1 cells were grown in DMEM with 10% fetal bovine serum (FBS). For analysis of ciliary disassembly, cells were plated at 30% confluence in plates containing glass cover slips, and starved for 48 hours (in Opti-MEM or regular DMEM, without added serum) to induce cilia formation, followed by treatments described hereinbelow. For siRNA treatment, cells were initially plated in DMEM/10% FBS in plates containing cover slips, and 12 hours later siRNA transfection was performed in Opti-MEM with Oligofectamine (Invitrogen) according to manufacturer recommendations, and fixed 48 hours after transfection, following treatments indicated in Results. The remaining cells on plate were lysed, then either directly analyzed by Western blot analysis, or used for immunoprecipitation (IP)-kinase reaction to measure AurA activity.
Cells were fixed with 4% paraformaldehyde (10 min) then methanol (5 min), permeabilized with 1% Triton-X100 in PBS, blocked in 1×PBS, 3% BSA, and incubated with antibodies using standard protocols. Primary antibodies included rabbit polyclonal anti-Aurora A and anti-phospho-AuroraA/T288, (Cell Signaling), mouse mAb anti-HEF1 (14A11), polyclonal anti-γ-tubulin (Sigma), anti-α-tubulin mAb (Sigma), anti-acetylated α-tubulin mAb (clone 6-11B-1, Sigma, and clone K(Ac)40 Biomol), anti-IFT88 and anti-IFT20 (gifts of G. Pazour), mouse anti-glutamylated tubulin (Sigma), and anti-HDAC6 (Upstate). Secondary antibodies labeled with Alexa-488, Alexa-568, and Alexa-633, and TOTO-3 dye to stain DNA, were from Molecular Probes/Invitrogen. DNA was co-stained in some experiments by propidium iodine (Sigma) or Draq5 (Alexis), Confocal microscopy was performed using a Radiance 2000 laser scanning confocal microscope ((Carl Zeiss, Thornwood, N.Y.) coupled to a Nikon Eclipse E800 upright microscope (Nikon). Statistical analysis of data by one-way ANOVA was performed using GraphPad Instat 3.0 (San Diego, Calif.).

[2] = system: acetylated tubulin; test: intracellular levels of acetylated tubulin (Western blot); conditions: vs DMSO vehicle
Description: (§1) For microinjection, recombinant glutathione-S-transferase (GST), GST fused AurA mutants T288A and D274N) produced from BL21 (DE3) bacteria were purified using the MicroSpin GST Purification Module (Amersham Biotech.). Purified recombinant AurA was purchased from Upstate; this AurA was pre-activated based on incubation with ATP. […] To prepare lysates for Western blotting and IP, mammalian cells were disrupted by M-PER lysis buffer (Pierce) supplemented with EDTA-free protease inhibitor cocktail (Roche). Lysates used for IP were incubated overnight with antibody at 4° C., subsequently incubated for 2 hours with protein A/G-sepharose (Pierce), washed, and resolved by SDS-PAGE. Western blotting was performed using standard procedures and proteins visualized using the West-Pico system (Pierce). Antibodies used included mouse monoclonal antibody (mAb) anti-HEF1 2G9 (Pugacheva and Golemis, 2005), anti-α-tubulin mAb (Sigma), anti-AurA (BD Bioscience) for Western blotting, anti-AurA rabbit polyclonal (Cell Signaling) for IP, anti-Phospho-AurA/T288 (BioLegend), anti-Phospho-AurA/T288 (Cell Signaling), anti-HDAC6 rabbit polyclonal (Upstate; 1:5000), anti-HDAC2 rabbit polyclonal (Invitrogen) and mAb anti-β-actin (AC15, Sigma), anti-IFT88 and anti-IFT20. Secondary horseradish peroxidase (HRP)-conjugated antibodies were from Amersham Biotech.

[3] = system: hTERT-RPE1 cells; test: FACS cell cycle profile after serum stimulation
[4] = system: hTERT-RPE1 cells; test: loss of cilia after microinjection of AurA proteins into ciliated hTERT-RPE1 cells; conditions: for loss of cilia after microinjection: 0.05 μM protein microinjected, low serum medium
Description: as §1
Microinjections were performed on a Nikon TE300 Microscope (Nikon, Melville, N.Y.) that was equipped with an Eppendorf Transjector 5246 semi-automatic microinjector and micromanipulator (Eppendorf, Westbury, N.Y.). […] Proteins were pre-filtered through a 0.2-μm Milliopore membrane and mixed with Dextran Green488 (Molecular Probes) to mark injected cells. Injected cells were incubated at 37° C. before fixation. Typically, 150 cells were microinjected in each of 3 experiments.

Molecule	serum-induced ciliary disassembly [1]	levels of acetylated tubulin in treated cells [2]	loss of cilia after microinjection [4]	also measured
CC(/C=C/C(=O)NO)=C\[C@@H](C)C(=O)c1ccc(N(C)C)cc1 [trichostatin A (TSA), trichostatin A]	completely blocked	increased	–	–
O=C(O)CCCCCCC(=O)Nc1ccc([C@H]2O[C@@H](CSc3nc(-c4ccccc4)c(-c4ccccc4)o3)C[C@@H](c3ccc(CO)cc3)O2)cc1 [niltubacin]	no effect	not	–	–
COC(=O)[C@H](CCSC)NC(=O)c1ccc(NC[C@@H](N)CS)cc1-c1ccccc1 [FTI]	do not inhibit	–	–	–
O=C(CCCCCCC(=O)Nc1ccc([C@H]2O[C@@H](CSc3nc(-c4ccccc4)c(-c4ccccc4)o3)C[C@@H](c3ccc(CO)cc3)O2)cc1)NO [tubacin]	completely blocked	increased	–	cell cycle profile at 2 h after serum stimulation ([3]; 2 h): neither tubacin treatment nor siRNA to HDAC6 influenced cell cycle profile; cell cycle profile at the later time point after serum stimulation ([3]; later time point (18-24 h)): accumulation in G2; ability of microinjected AurA to disassemble cilia ([4]; cells pre-treated for 3 hours with tubacin before aAurA microinjection): substantially limited
B1	–	–	did not induce loss of cilia	–
B2	–	–	eventual partial loss of cilia	–

— patent US8685658B2, “Compositions and methods for the treatment of diseases associated with aberrant cilia assembly and regulation” (Fox Chase Cancer Center, priority 2006, dated 2014)
